# From US7345051B2, “Mucin synthesis inhibitors” (Genaera Corporation, priority 2000, dated 2008)
# “Also recorded” adds a separate entry of the source.
# Columns and labels:
# [1] = system: H292 clone 15 cells; conditions: 48 hours compound, Alamar Blue 2 hours; Average of 3 experiments
# [2] = system: MUC5AC production by H292 clone 15 cells overexpressing hCLCA1; assay: ELLA of MUC5AC in conditioned media of H292 clone 15 cells; type: cell-based, human; conditions: Homo sapiens, NCI-H292, 48 hours, Average of 3 experiments
# Experimental: Conditioned media were collected and MUC5AC (the major secretory mucin in lungs) content was determined by ELLA measurement as described below. 96 well microtiter plates were coated with a mouse monoclonal antibody against human MUC5AC (1-13M1, NeoMarkers), then incubated with test conditioned media. Bound MUC5AC was detected by horseradish peroxidase-conjugated soybean lectin which has a high affinity towards highly-glycosylated proteins such as MUC5AC. Conversion of peroxidase substrate TMB (Tetramethylbenzidine Base) was quantified by reading at 450 nm. O.D. (optical density) readings were plotted against concentrations of compounds.
# [3] = system: activated Caco2 cells; conditions: Caco-2
# [4] = system: MUC5A/C secretion in hCLCA1 expressing H292 cells; assay: MUC5A/C secretion in hCLCA1 expressing H292 cells (ELLA); type: cell-based, human; parameters: key to ELLA: + = inhibition; − = no inhibition; conditions: Table 2, mucin production
# [5] = system: NCI-H292/hICACC-1 (AAF 15) cells; assay: AB/PAS staining of mucous glycoconjugates in NCI-H292 cells over-expressing hICACC-1; type: cell-based, human; conditions: 3 days
# Experimental: NCI-H292 cells, a human pulmonary mucoepidermoid carcinoma cell line, were purchased from the American Type Culture Collection (Manassas Va.) and cultured in RPMI1640 medium supplemented with 10% FBS and 1% penicillin/streptomycin (Gibco/BRL). The cells were grown in a humidified, air-containing incubator, supplemented with 5% CO2 at 37° C. Stable NCI-H292 cell lines over-expressing hICACC-1 were established by transfection of pcDNA3-hICACC-1 using a Fujin Transfection kit according to the manufacture's instruction (Boehringer-Mannheim). A control cell line was produced, NCI-H292/ctl, by the transfection of pcDNA3 (ctl) into the NCI-H292 cell line using the same procedure. Expression of the hICACC-1 gene was confirmed for the pcDNA3-hICACC-1 transfectent by Northern analysis.
# For the determination of mucous glycoconjugate production, NCI-H292/ctl and NCI-H292/hICACC-1 (AAF 15) cells were cultured in 24-well plates for 3 days. Cells were then fixed with Formalin and mucous glycoconjugates were visualized by AB/PAS staining (Sigma). […] For chloride channel blockage studies, cells were cultured in the presence of niflumic acid (NFA) (Sigma) at 100 μM concentration, mefanamic acid (MFA) at 125 or 250 μM or talniflumate at 12.5, 25 or 50 μM, or media alone.
# [6] = system: IL9 transgenic mice; assay: Mucin production in lungs of IL9 transgenic mice, intra-tracheal treatment; type: in vivo; conditions: NFA (100 μg) IT once daily for three days
# Experimental: Certified virus-free male and female IL9 transgenic mice (IL9TG5-FVB/N) 5-6 weeks of age were bred in our laboratories. Male and female FVB/N mice 5-6 weeks of age were purchased from Jackson Laboratories (Bar Harbor Me.). Animals were housed in high-efficiency, particulate filtered air and allowed free access to food and water for 3 to 7 days prior to experimental manipulation. The animal facilities were maintained at 22° C. and the light:dark cycle was automatically controlled (10:14 hour light:dark).
# Animals were phenotyped, naïve, or 24 hrs after receiving intra-tracheal (IT) shame (vehicle) treatment, or drugs in the same vehicle as was used in identically treated controls. Mice were treated IT once daily for three days. NFA (100 μg) or antibody to IL-9 were administered in PBS IT. […] The up-regulation of mucus production in the IL9 transgenic is specifically associated with increased steady-state mRNA levels of MUC2 and MUC5AC as shown by RT-PCR (FIG. 9).
# [7] = system: activated Caco2 cell line; assay: Viability of activated Caco2 cells treated with NFA; type: cell-based; conditions: even higher concentrations of NFA
# [8] = system: mice sensitized by nasal aspiration of Aspergillus fumigatus antigen; type: in vivo
# [9] = system: activated LHL4 cells; assay: Eotaxin production by activated LHL4 cells (ELISA); type: cell-based; conditions: increasing concentrations
# Experimental: Activated LHL4 cells that express and secrete eotaxin have been produced and used to test for inhibitors of eotaxin production. These cells were assayed in vitro for eotaxin by an ELISA technique well known in the art (R&D Systems).
# [10] = system: MUC2 transcription; assay: MUC2 promoter luciferase reporter, lipoteichoic acid induction; type: cell-based; conditions: LTA from S. aureus; FIG. 22
# Experimental: MUC2 transcription was monitored as described in Li et al. (1998) Proc. Natl. Acad. Sci., USA, Vol. 95, pp. 5718-5723. Briefly, an epithelial cell line was transfected with a reporter construct containing the promoter region from the MUC2 gene cloned upstream of a luciferase reporter gene. Transfected cells were treated with serum free media (SFM) alone or, as indicated, containing lipoteichoic acid from S. aureus bacteria (LTA), adenosine (aden), or talniflumate (MSI). Cells were then lysed and luciferase enzyme activity in the lysates was measured (RLU). Talniflumate modulated the lipoteichoic acid induction of MUC2 (see FIG. 22). This is also an appropriate model for CF.
# [11] = system: human chloride channel hICACC-1; assay: Patch clamp chloride current, NCI-H292 cell expressing hICACC-1; type: cell-based; conditions: 5 micromolar talniflumate; 2 μM ionomycin and 2 mM calcium
# Experimental: An NCI-H292 cell transfected with a plasmid expressing the human chloride channel hICACC-1 was patch clamped and chloride current (I) was measured over a range of voltages (V). Substantial chloride current was invoked by the addition of 2 μM ionomycin and 2 mM calcium (circles) compared to baseline (squares), indicating activation of hICACC-1.
# [12] = system: B6D2F1 mice sensitized with Aspergillus fumigatus; assay: Murine asthma model, Aspergillus fumigatus sensitization, Talniflumate containing mouse chow; type: in vivo; conditions: oral
# [13] = system: CF mice (CF knock-out mice and CF ΔF508 mice); conditions: po, 100 mg/kg
# [14] = biological target: T1, murine chloride channel, mICACC-1 (Mus musculus, UniProt Q9D7Z6); assay: Patch clamp chloride current, HEK293 cell expressing mICACC-1; type: cell-based; conditions: for Chloride Current (nA/pF): + ionomycin + Ca
# T1 construct: expressed in transfected cells; host or cells: HEK293
# T1 sequence (Q9D7Z6 22-913): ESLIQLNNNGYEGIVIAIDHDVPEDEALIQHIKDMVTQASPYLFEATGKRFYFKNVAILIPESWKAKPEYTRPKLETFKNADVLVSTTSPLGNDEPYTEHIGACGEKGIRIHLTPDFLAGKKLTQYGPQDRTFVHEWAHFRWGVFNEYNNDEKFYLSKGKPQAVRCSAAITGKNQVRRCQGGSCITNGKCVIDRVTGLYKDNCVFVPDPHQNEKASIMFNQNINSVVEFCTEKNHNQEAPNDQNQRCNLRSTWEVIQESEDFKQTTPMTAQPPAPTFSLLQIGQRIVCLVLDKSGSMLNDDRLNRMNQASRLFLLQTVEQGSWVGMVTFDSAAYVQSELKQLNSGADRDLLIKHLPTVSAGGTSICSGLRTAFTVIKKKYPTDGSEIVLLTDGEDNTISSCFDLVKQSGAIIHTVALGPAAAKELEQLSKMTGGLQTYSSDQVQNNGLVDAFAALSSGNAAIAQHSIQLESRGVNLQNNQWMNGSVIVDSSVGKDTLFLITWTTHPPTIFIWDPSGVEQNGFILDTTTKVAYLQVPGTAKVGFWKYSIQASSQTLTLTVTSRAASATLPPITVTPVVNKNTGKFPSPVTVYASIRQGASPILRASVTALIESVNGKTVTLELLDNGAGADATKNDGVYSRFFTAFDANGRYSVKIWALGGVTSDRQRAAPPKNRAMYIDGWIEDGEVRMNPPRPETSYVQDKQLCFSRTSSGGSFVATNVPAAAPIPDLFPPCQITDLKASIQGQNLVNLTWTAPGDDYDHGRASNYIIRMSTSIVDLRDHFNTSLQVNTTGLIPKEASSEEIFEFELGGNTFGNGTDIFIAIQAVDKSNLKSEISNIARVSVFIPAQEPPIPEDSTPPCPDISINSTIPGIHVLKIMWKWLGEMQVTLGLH
# Experimental: A HEK293 cell transfected with a plasmid expressing a murine chloride channel, mICACC-1, was patch clamped and chloride current was measured over a range of voltages (V, left column) and the results are shown in Table 3 below. Each row lists currents invoked at a particular positive voltage in the absence (−) or presence (+) of ionomycin and calcium, and in the presence of an indicated concentration of diclofenac (μM). Substantial current was invoked by the addition of 2 μM ionomycin and 2 mM calcium-compare the first two columns-indicating activation of mICACC-1 by the ionomycin/calcium treatment. For example, at 100 mV of positive voltage, the chloride current was increased from 39 nA/pF to 105 nA/pF.
compound,measurement,setting,value
O=C1OC(CC(=O)c2cccnc2Oc2cccc(Br)c2)c2ccccc21 (stereo not shown) [Compound 14],Est. LD50 (μM)(alamar Blue)*,[1],16 µM
O=C1OC(CC(=O)c2cccnc2Sc2ccccc2Cl)c2ccccc21 (stereo not shown) [Compound 15],IC50,[2],2.5 µM
same,Est. LD50 (μM)(alamar Blue)*,[1],15 µM
O=C(O)c1ccccc1Nc1cccc(C(F)(F)F)c1 [Flufenamate],Mucin production by activated Caco2 cells,[3],inhibited
"COC(=O)c1cccnc1Nc1cccc(C(F)(F)F)c1 [MSI 2213, Niflumic acid methyl ester]",ELLA,[4],−
Cc1ccc(Cl)c(Nc2ccccc2C(=O)O)c1Cl [Meclofenamate],Mucin production by activated Caco2 cells,[3],partially
Cc1cccc(Nc2ccccc2C(=O)O)c1C [Mefenamate],Mucin production by activated Caco2 cells,[3],partially
same,PAS positive staining muco-glycoconjugates compared with untreated cells,[5]; MFA at 125 or 250 μM,significantly fewer positive staining muco-glycoconjugates
"O=C(O)c1cccnc1Nc1cccc(C(F)(F)F)c1 [NFA, niflumic acid]",mucin production in the IL9 transgenic lungs,[6],decreased mucin production
same,viability,[7],not affected; also recorded: did not effect their viability
same,PAS positive staining muco-glycoconjugates compared with untreated cells,[5]; NFA at 100 μM,significantly fewer positive staining muco-glycoconjugates
same,serum IgE levels,"[8]; 100 μg of NFA intra-tracheal, days 0-21, vs PBS",no effect
same,BAL lung eosinophilia,"[8]; mouse, in vivo",suppress; also recorded: reduces antigen-induced lung eosinophilia in vivo
same,antigen-induced airway hyperresponsiveness,"[8]; mouse, in vivo",suppress; also recorded: suppresses antigen-induced airway hyperresponsiveness
same,eotaxin production,[9],Significant inhibition; also recorded: blocks epithelial activation including chemokine production
COc1ccc2cc([C@H](C)C(=O)O)ccc2c1 [Naproxen],Mucin production by activated Caco2 cells,[3],ineffective
CC1=C(CC(=O)O)c2cc(F)ccc2/C1=C\c1ccc([S+](C)[O-])cc1 (stereo not shown) [Sulindac],Mucin production by activated Caco2 cells,[3],ineffective
"O=C1OC(OC(=O)c2cccnc2Nc2cccc(C(F)(F)F)c2)c2ccccc21 (stereo not shown) [Talniflumate, talniflumate]","lipoteichoic acid induction of MUC2 (luciferase, RLU)",[10],modulated
same,Est. LD50 (μM)(alamar Blue)*,[1],108 µM
same,chloride current at positive voltage,[11],reduction in chloride current
same,"lung eosinophilia, number of eosinophilic cells by bronchoalveolar lavage","[12]; Talniflumate coated chow, sensitized mice vs standard chow",reduced the number of eosinophilic cells; also recorded: inhibition of lung eosinophilia
same,mucin staining (PAS) in lung,"[12]; Talniflumate containing chow ad lib, Asp-sens mice vs regular chow",reduced mucin staining; also recorded: inhibition of mucin over production
same,body weight gained,[13],8-12%
same,PAS positive staining muco-glycoconjugates compared with untreated cells,"[5]; talniflumate at 12.5, 25 or 50 μM",significantly fewer positive staining muco-glycoconjugates
O=C(O)Cc1ccccc1Nc1c(Cl)cccc1Cl [diclofenac],Chloride Current (nA/pF),"[14]; 0 mV, diclofenac 5 μM",20 nA/pF
same,Chloride Current (nA/pF),"[14]; 0 mV, diclofenac 20 μM",20 nA/pF
same,Chloride Current (nA/pF),"[14]; 0 mV, diclofenac 50 μM",19 nA/pF
same,Chloride Current (nA/pF),"[14]; 20 mV, diclofenac 5 μM",36 nA/pF
same,Chloride Current (nA/pF),"[14]; 20 mV, diclofenac 20 μM",34 nA/pF
same,Chloride Current (nA/pF),"[14]; 20 mV, diclofenac 50 μM",33 nA/pF
same,Chloride Current (nA/pF),"[14]; 40 mV, diclofenac 5 μM",53 nA/pF
same,Chloride Current (nA/pF),"[14]; 40 mV, diclofenac 20 μM",51 nA/pF
same,Chloride Current (nA/pF),"[14]; 40 mV, diclofenac 50 μM",48 nA/pF
same,Chloride Current (nA/pF),"[14]; 60 mV, diclofenac 5 μM",72 nA/pF
same,Chloride Current (nA/pF),"[14]; 60 mV, diclofenac 20 μM",69 nA/pF
same,Chloride Current (nA/pF),"[14]; 60 mV, diclofenac 50 μM",66 nA/pF
same,Chloride Current (nA/pF),"[14]; 80 mV, diclofenac 5 μM",92 nA/pF
same,Chloride Current (nA/pF),"[14]; 80 mV, diclofenac 20 μM",88 nA/pF
same,Chloride Current (nA/pF),"[14]; 80 mV, diclofenac 50 μM",85 nA/pF
same,Chloride Current (nA/pF),"[14]; 100 mV, diclofenac 5 μM",115 nA/pF
same,Chloride Current (nA/pF),"[14]; 100 mV, diclofenac 20 μM",109 nA/pF
same,Chloride Current (nA/pF),"[14]; 100 mV, diclofenac 50 μM",106 nA/pF
same,inhibition of channel activity,"[14]; diclofenac 5 μM to 50 μM, 2 μM ionomycin and 2 mM calcium",No inhibition
